The supplement of paper PMC10307832

What was measured:
Test in all cases: relative viability (nuclei count vs DMSO), 5 days (fraction); higher = more cells survive
[1] = compound: C[C@@H](N)c1ccc(C(=O)Nc2ccnc3[nH]ccc23)cc1 + C[C@]1(O)C[C@@H](c2nc(-c3ccc4ccc(-c5ccccc5)nc4c3)c3c(N)nccn32)C1 [Linsitinib] (partner 1 µM)
How it was run: (§1)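 After 5 days of treatment, lung cancer cells in 1536-well plates were fixed and stained in a single step (final 0.05% Triton X-100, 1% formaldehyde, 1 ug/ml Hoechst) and their nuclei counted on 4× images. Treatment had been applied by pin tool the day after seeding as one drug alone or as a fixed anchor-drug dose with five library-drug doses (not always all listed) in √10 steps. Relative viability is the nuclei count of treated wells divided by that of vehicle wells, and values are medians of duplicate plates.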

[2] = compound: O[C@H]1CC[C@H](Nc2ncc3nc(Nc4c(F)cc(F)cc4F)n([C@H]4CCOC4)c3n2)CC1 [Tanzisertib] + CC(=O)c1c(C)c2cnc(Nc3ccc(N4CCNCC4)cn3)nc2n(C2CCCC2)c1=O [Palbociclib] (partner 0.5 µM)
How it was run: as §1

[3] = compound: C[C@@H](N)c1ccc(C(=O)Nc2ccnc3[nH]ccc23)cc1 + CC(=O)c1c(C)c2cnc(Nc3ccc(N4CCNCC4)cn3)nc2n(C2CCCC2)c1=O [Palbociclib] (partner 0.5 µM)
How it was run: as §1

[4] = compound: C1CNCCC1C2=CC(=NN2)C3=CC=NC=C3 + NC(=O)Nc1cc(-c2cccc(F)c2)sc1C(=O)N[C@H]1CCCNC1 [AZD7762] (partner 0.2 µM)
How it was run: as §1

Cell Line	relative viability ([1]; first compound 0.04 µM)	relative viability ([1]; first compound 0.1265 µM)	relative viability ([1]; first compound 0.4 µM)	relative viability ([1]; first compound 1.265 µM)	relative viability ([1]; first compound 4 µM)	relative viability ([2]; first compound 0.253 µM)	relative viability ([2]; first compound 0.8 µM)	relative viability ([2]; first compound 2.53 µM)	relative viability ([2]; first compound 8 µM)	relative viability ([3]; first compound 0.04 µM)	relative viability ([3]; first compound 0.1265 µM)	relative viability ([3]; first compound 0.4 µM)	relative viability ([3]; first compound 1.265 µM)	relative viability ([3]; first compound 4 µM)	relative viability ([4]; first compound 0.08 µM)	relative viability ([4]; first compound 2.53 µM)	relative viability ([4]; first compound 8 µM)	relative viability ([2]; first compound 0.08 µM)	relative viability ([4]; first compound 0.8 µM)
NCI-H2085	1.02	0.907	0.905	0.868	0.777	0.456	0.454	0.455	0.505	0.454	0.452	0.402	0.373	0.406	0.999	1.03	1	–	–
NCI-H2087	1	0.823	0.916	0.824	0.478	0.308	0.254	0.235	0.255	0.24	0.263	0.299	0.254	0.28	1.18	1.33	1.22	0.256	1.46
NCI-H2126	0.726	0.72	0.805	0.705	0.781	0.355	0.349	0.37	0.324	0.34	0.351	0.364	0.378	0.389	1.01	1.01	1.01	0.34	1.04
NCI-H2347	0.937	0.868	1.02	1.02	0.8	0.457	0.452	0.444	0.435	0.422	0.443	0.41	0.483	0.463	0.763	0.745	0.76	0.466	0.494
NCI-H2405	–	1.07	0.744	0.599	0.45	0.502	0.55	0.546	0.47	–	0.505	0.494	0.3	0.233	0.858	0.709	0.585	0.508	0.717
NCI-H3122	1.03	0.985	0.964	1.02	1.03	0.187	0.213	0.159	0.206	0.221	0.188	0.23	0.243	0.221	0.948	0.966	1.01	0.23	1.06
PC-3 [JPC-3]	0.963	1.05	0.978	1	0.879	0.53	0.576	0.521	0.571	0.544	0.516	0.53	0.551	0.575	0.879	0.689	0.936	0.539	0.817
PC-14	0.927	0.907	0.924	0.819	0.725	0.533	0.589	0.532	0.208	0.552	0.537	0.483	–	0.367	0.363	0.237	0.348	0.681	0.383
RERF-LC-KJ	0.896	0.871	0.998	0.944	0.861	1.01	1.25	1.05	1.05	1.05	1.12	1.22	1.23	0.943	0.905	1.11	1.01	1.12	1.04
